According to patent US4996212A, “Antiinflammatory and anti-hyperproliferative compounds” (Schering Corporation, priority 1989, dated 1991):

Experiments:
[1] = target: T1, 5-lipoxygenase (Rattus norvegicus, UniProt P12527); experiment: 5-lipoxygenase activity / arachidonic acid metabolism in rat neutrophils; type: cell-based; conditions: compound concentration 5×^10-5 Molar, [14C] arachidonic acid
T1 construct: at 3-12×10^7 intact neutrophils per ml; endogenous in cells; host or cells: neutrophils from the pleural exudate of male Wistar-Lewis rats (reversed passive Arthus reaction)
T1 sequence (P12527 1-673): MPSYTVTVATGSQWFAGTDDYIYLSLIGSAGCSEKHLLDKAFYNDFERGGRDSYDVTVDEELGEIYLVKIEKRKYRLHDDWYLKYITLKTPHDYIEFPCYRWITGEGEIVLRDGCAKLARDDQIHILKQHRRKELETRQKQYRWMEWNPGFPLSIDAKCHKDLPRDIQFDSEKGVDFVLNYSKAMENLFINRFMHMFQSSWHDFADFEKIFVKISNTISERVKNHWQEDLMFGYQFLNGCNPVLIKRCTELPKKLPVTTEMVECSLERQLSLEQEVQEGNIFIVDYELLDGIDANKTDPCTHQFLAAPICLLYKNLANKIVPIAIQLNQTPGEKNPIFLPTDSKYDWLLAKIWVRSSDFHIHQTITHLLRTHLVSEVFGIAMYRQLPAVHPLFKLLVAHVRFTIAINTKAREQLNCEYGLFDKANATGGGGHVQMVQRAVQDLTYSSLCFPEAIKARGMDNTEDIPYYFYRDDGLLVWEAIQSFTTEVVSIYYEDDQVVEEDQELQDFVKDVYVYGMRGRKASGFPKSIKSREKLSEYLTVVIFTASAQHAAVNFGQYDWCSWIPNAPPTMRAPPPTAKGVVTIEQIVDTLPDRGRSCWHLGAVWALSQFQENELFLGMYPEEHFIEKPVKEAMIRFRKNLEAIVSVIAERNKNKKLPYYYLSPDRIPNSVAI
Description: The effect of the compounds of the invention on 5-lipoxygenase activity is determined using rat neutrophils. Male Wistar-Lewis rats are injected intravenously with 5 mg BSA in 0.2 ml pyrogen free saline followed by an intrapleural injection of 500 ug of the IgG fraction of rabbit anti-BSA (Cappel Labs., Lot 17782) in 0.2 ml pyrogen free saline. Injections are made under light ether anesthesia. Four hours later, the pleural cavity exudate consisting of 85 to 95% neutrophils is removed. Neutrophils are isolated from the pleural exudates by centrifugation of 4° C. for 10 min at 200×g. The cell pellet is resuspended in 17 mM Tris HCl buffer, pH 7.2, containing 0.75% NH4 Cl to lyse contaminating erythrocytes followed by centrifugation at 4° C. for 5 min at 200×g. The pelleted neutrophils are rewashed in 50 mM Tris HCl, pH 7.4, containing 100 mM NaCl, followed by the same centrifugation. The cell pellet is resuspended in 50 mM Tris HCl, pH 7.4, containing 100 mM NaCl and 1 mM CaCl2, at 3-12×10^7 intact neutrophils per ml.
Solutions of compounds in methanol are dried, then resuspended in the cell suspension for 4 min. Arachidonic acid metabolism is determined by incubating 0.1 ml of this suspension with 40 uM [×^14 C] arachidonic acid (AA) (Amersham, 59 Ci/mole), in the presence of 0.1% BRIJ 56 and 10 uM A23187. Arachidonic acid metabolism as well as the various drug and reagent abbreviations are described in detail in Arch. Dermatol, Vol. 119, pages 541 to 547 (July 1983), the teachings of which are incorporated herein by reference. Assays run in triplicate are initiated by adding cells with inhibitor to a film of the BRIJ 56, arachidonic acid and A23187 at 37° C. After one minute, reactions are terminated by the addition of 2.4 ml of a chloroform:methanol (1:1 v/v) mixture and 0.9 ml of 0.1% formic acid. […] Products, leukotriene B4 (LTB4), 12-hydroxy heptadecatrienoic acid (HHT) and 5-hydroxy icosatetraenoic acid (5-HETE), are located by autoradiography and appropriate regions of the thin layer plates are scraped and counted in a liquid scintillation counter. […]

[2] = test system: pleural cavity of rats; experiment: reverse passive Arthus reaction in the pleural cavity of rats; type: in vivo; conditions: po, rat pleural cavity RPAR
From the text: Another procedure for testing for acute antiinflammatory activity measures the reverse passive Arthus reaction in the pleural cavity of rats as described in Myers et al., Inflammation, Vol. 9, No. 1, 1985, pp. 91-98.

[3] = test system: Male Lewis inbred albino rats; experiment: Reversed Passive Arthus Reaction (RPAR), paw volume; type: in vivo; conditions: po, rat paw RPAR
Description: Reversed Passive Arthus Reaction (RPAR) Animals, Materials and Methods
Male Lewis inbred albino rats weighing 180-220 grams obtained from Charles River Breeding Laboratories are used in these experiments. The rats are housed 3 animals/cage and food and water are allowed ad libitum.
The animals are numbered 1-3 in each cage and color marked for identification purposes.
All reagents and drugs are prepared just prior to the study. Crystallized and lyophilized bovine serum albumin (BSA), obtained from Sigma Chemical Company, is solubilized without shaking in cold sterile pyrogen free saline (10 mg/ml). Lyophilized anti-bovine serum albumin (IgG Fraction), obtained from Cappel Laboratories, is suspended in sterile distilled water and diluted with cold pyrogen free saline (PFS) just prior to use. The final concentration of anti-bovine serum albumin is 0.5 mg/ml of PFS. Both BSA and anti-BSA solutions are iced during use. Drugs are suspended or solubilized in an aqueous solution of methyl cellulose (MC) with a homogenizer just prior to administration.
Groups of animals (6/group) are dosed with drug in MC by gavage one hour prior to sensitization with BSA. […] The volume of mercury displaced is converted to weight and recorded. […] Paw volumes are also recorded with a plethysmograph during the development of the inflammation at 2 and 4 hours post-challenge.

Compound | inhibition of HETE production [1] [%] | inhibition of HHT production [1] | inhibition of LTB4 production [1] [%] | ED50 [2] [mg/kg] | ED50 [3] [mg/kg]
O=c1c2c(c3cccnc3n1-c1ccccc1)N(c1ccccc1)CC2 [1,2,3,5-tetrahydro-1,5-diphenyl-4H-pyrrolo[3,2-c][1,8]napthyridin-4-one] | ~60 | about 40% | ~60 | – | –
O=c1c2c(c3cccnc3n1-c1ccccc1)NCC2 [1,2,3,5-tetrahydro-5-phenyl-4H-pyrrolo[3,2-c][I, 8]napthyridin-4-one] | – | – | – | < 25 | ~25
CCOC(=O)N1CCc2c1c1cccnc1n(-c1ccccc1)c2=O [2,3,4,5-tetrahydro-4-oxo-5-phenyl-1H-pyrrolo[3,2-c][1,8]napthyridine-1-carboxylic acid, ethyl ester] | – | – | – | ~25 | –
